Patent publication US12097192B2 (Corcept Therapeutics Incorporated, priority 2019, dated 2024)
“Also recorded” adds a separate entry of the source.

Experiments:
Format in all cases: in vivo, human
[1] = system: Cushing's syndrome patients; experiment: Cushing's syndrome patient study: safety and adverse events
Description: (§1) All patients gave informed consent before participating in any study-related procedures.
The safety protocol also included assessments by physical examination findings, vital signs, ECG results, pregnancy tests, clinical laboratory test results (hematology and chemistry panels), adverse events (AEs), and concomitant medications.

[2] = system: Cushing's syndrome patients; experiment: Cushing's syndrome patient study: glucose control / hyperglycemia response; details: for Fructosamine, IGT mean change from Baseline to Last Observed / HOMA-IR, IGT mean change from Baseline to Last Observed / AUCglucose mean change from Baseline to Last Observed / AUCinsulin mean change from Baseline to Last Observed: All Subjects
Description: (§2) All patients gave informed consent before participating in any study-related procedures. […] The study protocol called for patient visits to the study site at screening, on Day 1 (baseline), Weeks 2, 4, 6, 8, 10, and 12, and after a 4-week follow-up period for Group 1. For Group 2, the protocol called for patient visits to the study site at screening, on Day 1 (baseline), Weeks 2, 4, 6, 8, 10, 12, 14, and 16, and after a 4-week follow-up period. Patient dosing will be done at home, except on days of study visits. Response criteria for hyperglycemia were changes from baseline in glucose tolerance as measured by: ≥0.5% decrease in HbA1c, normalization or ≥50 mg/dL decrease in 2-hr OGTT glucose, or decrease in total daily insulin (≥25%) or sulfonylurea dose (≥50%). Response criteria for hypertension (HTN) was a ≥5 mm Hg decrease in mean systolic and/or diastolic blood pressure (SBP/DBP). […] It ignores noncompliance, protocol deviations, withdrawal, and anything that happens after randomization. In contrast, per-protocol (PP) analysis refers to inclusion in the analysis of only those patients who strictly adhered to the protocol. The PP analysis provides an estimate of the true efficacy of an intervention, i.e., among those who completed the treatment as planned.

[3] = system: Cushing's syndrome patients; experiment: Cushing's syndrome patient study: POMC/proACTH and HPA axis; details: for POMC and proACTH mean change from Baseline to Last Observed: All Subjects
Description: as §2, with “visits.” for “visits. Response criteria for hyperglycemia were changes from baseline in glucose tolerance as measured by: ≥0.5% decrease in HbA1c, normalization or ≥50 mg/dL decrease in 2-hr OGTT glucose, or decrease in total daily insulin (≥25%) or sulfonylurea dose (≥50%). Response criteria for hypertension (HTN) was a ≥5 mm Hg decrease in mean systolic and/or diastolic blood pressure (SBP/DBP).”

[4] = system: Cushing's syndrome patients; experiment: Cushing's syndrome patient study: depression (BDI-II), Cushing QOL, cognitive tests; details: All Subjects
Description: as §2, with “visits.” for “visits. Response criteria for hyperglycemia were changes from baseline in glucose tolerance as measured by: ≥0.5% decrease in HbA1c, normalization or ≥50 mg/dL decrease in 2-hr OGTT glucose, or decrease in total daily insulin (≥25%) or sulfonylurea dose (≥50%). Response criteria for hypertension (HTN) was a ≥5 mm Hg decrease in mean systolic and/or diastolic blood pressure (SBP/DBP).”

[5] = system: Cushing's syndrome patients; experiment: Cushing's syndrome patient study: weight loss
Description: as §1

[6] = mITT, Group 1 (100-200 mg/day, 12 weeks)
[7] = mITT, Group 2 (250-400 mg/day, 16 weeks)
[8] = mPP, Group 1 (100-200 mg/day, 12 weeks)
[9] = mPP, Group 2 (250-400 mg/day, 16 weeks)

## Cn1cc(S(=O)(=O)N2CCC3=Cc4c(cnn4-c4ccc(F)cc4)C[C@]3(C(=O)c3cc(C(F)(F)F)ccn3)C2)cn1 [relacorilant, (R)-(1-(4-fluorophenyl)-6-((1-methyl-1H-pyrazol-4-yl)sulfonyl)-4,4a,5,6,7,8-hexahydro-1H-pyrazolo[3,4-g]isoquinolin-4a-yl) (4-(trifluoromethyl)pyridin-2-yl)methanone]
[1]; Cushing's syndrome patients
  adverse effects of progesterone receptor antagonism: no adverse effects of progesterone receptor antagonism
  drug induced hypokalemia: none of the patients suffered hypokalemia; also recorded: without any episodes of drug induced hypokalemia; also recorded: no patients developed drug induced hypokalemia; also recorded: no reported instances
  drug induced vaginal bleeding: No drug-induced hypokalemia or vaginal bleeding; also recorded: no cases of drug induced vaginal bleeding; also recorded: no reported instances
  drug-related serious adverse events: no drug-related serious adverse events
  most common treatment-emergent adverse events (TEAEs): back pain, edema, headache, and nausea
[1]; Cushing's syndrome patients, up to 400 mg/day
  tolerability: generally well tolerated
[1]; all from the HD group
  serious TEAEs: Five serious TEAEs were reported in 4 patients
[1]; one patient previously treated with mifepristone, during treatment with relacorilant
  endometrial hypertrophy developed on previous mifepristone: completely resolved
[1]; patients with endogenous Cushing syndrome
  safety profile compared with mifepristone: significantly better
[2]; [6]
  Fructosamine, IGT mean change from Baseline to Last Observed: -6.85 µmol/L
  HOMA-IR, IGT mean change from Baseline to Last Observed: 0.05
  AUCglucose mean change from Baseline to Last Observed: -3.11 mmol·h/L
  AUCinsulin mean change from Baseline to Last Observed: −33.28 hr * μU/mL
[2]; [7]
  Fructosamine, IGT mean change from Baseline to Last Observed: -21.58 µmol/L
  HOMA-IR, IGT mean change from Baseline to Last Observed: −3.2
  AUCglucose mean change from Baseline to Last Observed: -0.8 mmol·h/L
  AUCinsulin mean change from Baseline to Last Observed: −32.26 hr * μU/mL
[2]; mITT, Overall
  Fructosamine, IGT mean change from Baseline to Last Observed: -13.92 µmol/L
  HOMA-IR, IGT mean change from Baseline to Last Observed: −1.58
  AUCglucose mean change from Baseline to Last Observed: -1.96 mmol·h/L
  AUCinsulin mean change from Baseline to Last Observed: −32.77 hr * μU/mL
[2]; [8]
  Fructosamine, IGT mean change from Baseline to Last Observed: -8.08 µmol/L
  HOMA-IR, IGT mean change from Baseline to Last Observed: 0.39
  AUCglucose mean change from Baseline to Last Observed: -3.63 mmol·h/L
  AUCinsulin mean change from Baseline to Last Observed: −38.79 hr * μU/mL
[2]; [9]
  Fructosamine, IGT mean change from Baseline to Last Observed: -18.92 µmol/L
  HOMA-IR, IGT mean change from Baseline to Last Observed: −3.28
  AUCglucose mean change from Baseline to Last Observed: -1.24 mmol·h/L
  AUCinsulin mean change from Baseline to Last Observed: −37.39 hr * μU/mL
[2]; mPP, Overall
  Fructosamine, IGT mean change from Baseline to Last Observed: -13.28 µmol/L
  HOMA-IR, IGT mean change from Baseline to Last Observed: −1.37
  AUCglucose mean change from Baseline to Last Observed: -2.48 mmol·h/L
  AUCinsulin mean change from Baseline to Last Observed: −38.12 hr * μU/mL
[2]; Cushing's syndrome patients
  AUCglucose in patients with hyperglycemia: statistically significant reduction
[2]; HD group (doses up to 400 mg), week 16
  hyperglycemia response rate: 50%
[2]; LD group (doses up to 200 mg), week 12
  hyperglycemia response rate: 15.4%
[2]; doses up to 400 mg
  patients with hyperglycaemia showing glycaemic improvement (responders/patients): 6/12
[3]; [7]
  POMC and proACTH mean change from Baseline to Last Observed: 7.91 pmol/L
[3]; mITT, Overall
  POMC and proACTH mean change from Baseline to Last Observed: 7.91 pmol/L
[3]; [9]
  POMC and proACTH mean change from Baseline to Last Observed: 7.91 pmol/L
[3]; mPP, Overall
  POMC and proACTH mean change from Baseline to Last Observed: 7.91 pmol/L
[3]; patients with adrenal Cushing syndrome
  restoration of the suppressed HPA axis: half of the cases
[4]; [6]
  BDI-II Total Score mean change from Baseline to Last Observed: −3.06
  Cushing QOL Score mean change from Baseline to Last Observed: 6.25
  Part A - Total Time to Complete T mean change from Baseline to Last Observed: −3.65
  Part B - Total Time to Complete T mean change from Baseline to Last Observed: −15.94
[4]; [7]
  BDI-II Total Score mean change from Baseline to Last Observed: −3.94
  Cushing QOL Score mean change from Baseline to Last Observed: 8.07
  Part A - Total Time to Complete T mean change from Baseline to Last Observed: −4.67
  Part B - Total Time to Complete T mean change from Baseline to Last Observed: −34.6
[4]; mITT, Overall
  BDI-II Total Score mean change from Baseline to Last Observed: −3.48
  Cushing QOL Score mean change from Baseline to Last Observed: 7.13
  Part A - Total Time to Complete T mean change from Baseline to Last Observed: −4.13
  Part B - Total Time to Complete T mean change from Baseline to Last Observed: −24.69
[4]; [8]
  BDI-II Total Score mean change from Baseline to Last Observed: −4.47
  Cushing QOL Score mean change from Baseline to Last Observed: 6.25
  Part A - Total Time to Complete T mean change from Baseline to Last Observed: −3.65
  Part B - Total Time to Complete T mean change from Baseline to Last Observed: −15.94
[4]; [9]
  BDI-II Total Score mean change from Baseline to Last Observed: −3.87
  Cushing QOL Score mean change from Baseline to Last Observed: 7.64
  Part A - Total Time to Complete T mean change from Baseline to Last Observed: −4.67
  Part B - Total Time to Complete T mean change from Baseline to Last Observed: −34.6
[4]; mPP, Overall
  BDI-II Total Score mean change from Baseline to Last Observed: −4.19
  Cushing QOL Score mean change from Baseline to Last Observed: 6.9
  Part A - Total Time to Complete T mean change from Baseline to Last Observed: −4.13
  Part B - Total Time to Complete T mean change from Baseline to Last Observed: −24.69
[5]; doses up to 200 mg daily, within 3 months
  average weight loss: 2.2 kg
[5]; doses up to 400 mg daily, within 3 months
  average weight loss: 5.1 kg
[5]; many of the patients
  weight loss: Some weight loss
[5]; within 3 months, in half of the patients
  weight changes: significant weight changes
